PubChem BioAssay AID248 (DTP/NCI, 2004)
Values joined by “and” are separate entries in the source; they are usually repeats but may differ in a detail not shown here. Equal values may be shown once. Inconclusive results and toxic doses are left out. No stated cut-off is given here; in the data, active means T/C of 150% or more; inactive means T/C below 125%.

Tested on: L1210 leukemia ip in BDF1 mice, survival T/C
Assay: NCI In Vivo Anticancer Drug Screen. Data for tumor model L1210 Leukemia (intraperitoneal) in B6D2F1 (BDF1) mice
Settings: endpoint: mean survival time, higher = longer survival
Procedure, shortened: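 In this screen, tumor-bearing mice given compound are compared to those given vehicle, and their survival values are reported as a treated-to-control quotient.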

[1] = dose: 100.0 mg/kg/injection, schedule: Q04DX003 (ip), vehicle: Klucel (hydroxypropylcellulose) (HPC)
[2] = dose: 200.0 mg/kg/injection, schedule: Q04DX003 (ip), vehicle: Klucel (hydroxypropylcellulose) (HPC)
[3] = dose: 400.0 mg/kg/injection, schedule: Q04DX003 (ip), vehicle: Klucel (hydroxypropylcellulose) (HPC)
[4] = dose: 100.0 mg/kg/injection, schedule: Q04DX002 (ip), vehicle: Klucel (hydroxypropylcellulose) (HPC)
[5] = dose: 200.0 mg/kg/injection, schedule: Q04DX002 (ip), vehicle: Klucel (hydroxypropylcellulose) (HPC)
[6] = dose: 400.0 mg/kg/injection, schedule: Q04DX002 (ip), vehicle: Klucel (hydroxypropylcellulose) (HPC)
[7] = dose: 100.0 mg/kg/injection, schedule: Q04DX003 (ip), vehicle: saline
[8] = dose: 200.0 mg/kg/injection, schedule: Q04DX003 (ip), vehicle: saline
[9] = dose: 100.0 mg/kg/injection, schedule: Q01DX001 (ip), vehicle: saline
[10] = dose: 200.0 mg/kg/injection, schedule: Q01DX001 (ip), vehicle: saline
[11] = dose: 400.0 mg/kg/injection, schedule: Q01DX001 (ip), vehicle: saline
[12] = dose: 100.0 mg/kg/injection, schedule: Q01DX001 (ip), vehicle: carboxymethylcellulose (CMC)

Measured: T/C

O=C1NCN(c2ccccc2)C12CCN(CCCS(=O)(=O)c1ccccc1)CC2
inactive: dose: 100.0 mg/kg/injection, schedule: Q01DX001 (ip), vehicle: Klucel (hydroxypropylcellulose) (HPC) 93 % of control | dose: 200.0 mg/kg/injection, schedule: Q01DX001 (ip), vehicle: Klucel (hydroxypropylcellulose) (HPC) 94 % of control | dose: 400.0 mg/kg/injection, schedule: Q01DX001 (ip), vehicle: Klucel (hydroxypropylcellulose) (HPC) 101 % of control

CC(=O)NC1CCCCC1CC1CCCCC1 (stereo not drawn)
inactive: dose: 75.0 mg/kg/injection, schedule: Q01DX009 (ip), vehicle: Klucel (hydroxypropylcellulose) (HPC) 103 % of control | [1] 102 % of control | dose: 150.0 mg/kg/injection, schedule: Q01DX009 (ip), vehicle: Klucel (hydroxypropylcellulose) (HPC) 93 % of control | [2] 98 % of control | dose: 300.0 mg/kg/injection, schedule: Q01DX009 (ip), vehicle: Klucel (hydroxypropylcellulose) (HPC) 96 % of control | [3] 98 % of control

CCCCCCCC/C=C\CCCCCCCC(=O)[O][Sn]([CH2]CCC)([CH2]CCC)[O]C(=O)CCCCCCC/C=C\CCCCCCCC
inactive: dose: 1.56 mg/kg/injection, schedule: Q01DX009 (ip), vehicle: Klucel (hydroxypropylcellulose) (HPC) 109 % of control | dose: 3.12 mg/kg/injection, schedule: Q01DX009 (ip), vehicle: Klucel (hydroxypropylcellulose) (HPC) 98 % of control | dose: 6.25 mg/kg/injection, schedule: Q01DX009 (ip), vehicle: Klucel (hydroxypropylcellulose) (HPC) 106 % of control

O=C(O)C1OC1C(=O)O (stereo not drawn)
inactive: dose: 75.0 mg/kg/injection, schedule: Q01DX009 (ip), vehicle: saline with Tween-80 101 % of control | dose: 75.0 mg/kg/injection, schedule: Q04DX003 (ip), vehicle: saline 100 % of control | dose: 150.0 mg/kg/injection, schedule: Q01DX009 (ip), vehicle: saline with Tween-80 103 % of control | dose: 150.0 mg/kg/injection, schedule: Q04DX003 (ip), vehicle: saline 98 % of control | dose: 300.0 mg/kg/injection, schedule: Q01DX009 (ip), vehicle: saline with Tween-80 95 % of control | dose: 300.0 mg/kg/injection, schedule: Q04DX003 (ip), vehicle: saline 100 % of control

CN(C=O)C(=S)[S][Sb]([S]C(=S)N(C)C=O)[S]c1nc2ccc(N=Nc3ccc(NS(=O)(=O)c4ccc(NC(=O)C(Cl)Cl)cc4)cc3)cc2s1
inactive: dose: 100.0 mg/kg/injection, schedule: Q01DX001 (ip), vehicle: steriod suspending solution 101 % of control

O=C(O)c1cc(S(=O)(=O)O)cc(Br)c1O
inactive: [4] 95 % of control | [5] 103 % of control | [6] 89 % of control

NC(N)=Nc1ccccc1 (tested in a mixture with another compound)
inactive: [7] 100 % of control | [8] 100 % of control

CCC(=O)CC(C)(C)C
inactive: [9] 92 % of control | [10] 97 % of control | [11] 100 % of control

CS(=O)(=O)OCC1(Br)CC1(c1ccccc1)c1ccccc1 (stereo not drawn)
inactive: dose: 100.0 mg/kg/injection, schedule: Q01DX001 (ip), vehicle: other 95 % of control | dose: 200.0 mg/kg/injection, schedule: Q01DX001 (ip), vehicle: other 95 % of control | dose: 400.0 mg/kg/injection, schedule: Q01DX001 (ip), vehicle: other 90 % of control

c1ccc(CCN2CCOCC2)nc1
inactive: [7] 109 % of control | [8] 96 % of control

N=C(N)c1ccc(-n2nc3ccc(C(=N)N)cc3n2)cc1
inactive: dose: 6.25 mg/kg/injection, schedule: Q04DX003 (ip), vehicle: saline 100 % of control and 103 % of control | dose: 12.5 mg/kg/injection, schedule: Q04DX003 (ip), vehicle: saline 100 % of control | dose: 25.0 mg/kg/injection, schedule: Q04DX003 (ip), vehicle: saline 100 % of control

CC(Cc1ccccc1)NCCCCl (stereo not drawn)
inactive: dose: 15.0 mg/kg/injection, schedule: Q01DX001 (ip), vehicle: carboxymethylcellulose (CMC) 89 % of control | dose: 30.0 mg/kg/injection, schedule: Q01DX001 (ip), vehicle: carboxymethylcellulose (CMC) 95 % of control | dose: 60.0 mg/kg/injection, schedule: Q01DX001 (ip), vehicle: carboxymethylcellulose (CMC) 93 % of control

CC[CH2][Sn]([CH2]CC)([CH2]CC)[CH2]CC
inactive: dose: 50.0 mg/kg/injection, schedule: Q01DX001 (ip), vehicle: carboxymethylcellulose (CMC) 95 % of control | [12] 86 % of control

Cc1c(C)c2c(c(C)c1O)CC(CO)CO2 (stereo not drawn)
inactive: dose: 100.0 mg/kg/injection, schedule: Q01DX001 (ip), vehicle: saline with Tween-80 92 % of control | dose: 200.0 mg/kg/injection, schedule: Q01DX001 (ip), vehicle: saline with Tween-80 101 % of control | dose: 400.0 mg/kg/injection, schedule: Q01DX001 (ip), vehicle: saline with Tween-80 87 % of control

c1ccc2oc(N3CCN(c4nc5ccccc5o4)CC3)nc2c1
inactive: [12] 102 % of control | dose: 200.0 mg/kg/injection, schedule: Q01DX001 (ip), vehicle: carboxymethylcellulose (CMC) 91 % of control | dose: 400.0 mg/kg/injection, schedule: Q01DX001 (ip), vehicle: carboxymethylcellulose (CMC) 88 % of control

Nc1ccccc1C(=O)N/N=C/c1cccc(O)c1
inactive: [4] 98 % of control | [5] 103 % of control | [6] 113 % of control

Cc1ccc(NC(=O)C2C3CC4OC(=O)C2C4C3)cc1 (stereo not drawn)
inactive: [7] 102 % of control | [8] 108 % of control | dose: 400.0 mg/kg/injection, schedule: Q04DX003 (ip), vehicle: saline 111 % of control

CCCCCCCCCCCC(C)(O)CC (stereo not drawn)
inactive: dose: 100.0 mg/kg/injection, schedule: Q04DX003 (ip), vehicle: saline with Tween-80 95 % of control | dose: 200.0 mg/kg/injection, schedule: Q04DX003 (ip), vehicle: saline with Tween-80 95 % of control | dose: 400.0 mg/kg/injection, schedule: Q04DX003 (ip), vehicle: saline with Tween-80 101 % of control

C=C1C(=O)OC2CC(C)C3CC(=O)C(C)=C3C(O)C12 (stereo not drawn)
inactive: dose: 25.0 mg/kg/injection, schedule: Q01DX009 (ip), vehicle: saline 94 % of control | dose: 50.0 mg/kg/injection, schedule: Q01DX009 (ip), vehicle: saline 98 % of control

Cc1ccc(C(C)C)c(OC(=O)Nc2ccc(S(=O)(=O)N(C)C)cc2)c1
inactive: [9] 103 % of control | [10] 100 % of control | [11] 101 % of control

CCSC1C(O)C(C(O)CO)OC1n1cc(C)c(=O)[nH]c1=O (stereo not drawn)
inactive: dose: 100.0 mg/kg/injection, schedule: Q01DX005 (ip), vehicle: saline 102 % of control | dose: 200.0 mg/kg/injection, schedule: Q01DX005 (ip), vehicle: saline 107 % of control

CCCCCCCC(=O)Nc1ccc(C)cc1
inactive: dose: 50.0 mg/kg/injection, schedule: Q01DX009 (ip), vehicle: Klucel (hydroxypropylcellulose) (HPC) 97 % of control | dose: 100.0 mg/kg/injection, schedule: Q01DX009 (ip), vehicle: Klucel (hydroxypropylcellulose) (HPC) 95 % of control | [1] 99 % of control | dose: 200.0 mg/kg/injection, schedule: Q01DX009 (ip), vehicle: Klucel (hydroxypropylcellulose) (HPC) 98 % of control | [2] 98 % of control

O=C(Nc1cccc(C(F)(F)F)c1)Nc1ccccn1
inactive: dose: 100.0 mg/kg/injection, schedule: Q01DX009 (ip), vehicle: gum acacia 99 % of control | dose: 200.0 mg/kg/injection, schedule: Q01DX009 (ip), vehicle: gum acacia 92 % of control | dose: 400.0 mg/kg/injection, schedule: Q01DX009 (ip), vehicle: gum acacia 89 % of control

Cc1ccc(S(=O)(=O)N(C)c2ccc(N(C)S(=O)(=O)c3ccc(C)cc3)cc2)cc1
inactive: [1] 97 % of control | [2] 97 % of control | [3] 97 % of control
